The numbers were not newly measured in patent US5399700A, “Method for preparing enteric-coated oral drugs containing acid-unstable compounds” (Sunkyong Industries Co., Ltd., priority 1991, dated 1995), which cites them from elsewhere.

For data set [1] the following is noted: Table 9.
Assay in data set [2]: not given
The source holds these as a separate data set.

Structures are written as SMILES. Read-outs that look alike come from different tables or passages of the source.

The term pKa denotes the negative logarithm of the acid dissociation constant. With `CC(C)CN` [Isobutylamine], the pKa in data set [1] was 10.42.
With `CCCN` [Propylamine], in data set [1], the pKa is given as 10.57.
As for `CC(C)(C)N` [Tert-butylamine], the pKa in data set [1] was 10.87.
Consider `CCCCN(CCCC)CCCC` [Tributylamine], for which the pKa in data set [1] is listed as 10.87.
One may read the half-life as how long it takes for the measured level to halve. As to `COc1ccc2[nH]c([S+]([O-])Cc3ncc(C)c(OC)c3C)nc2c1` (stereo not shown) [omeprazole], the half-life is 0.167 h (medium of below pH 4), 18 h (pH 6.8) and “about 300 days” (pH 11).
Take `OC[C@H]1O[C@@H]2O[C@H]3[C@H](O)[C@@H](O)[C@@H](O[C@H]4[C@H](O)[C@@H](O)[C@@H](O[C@H]5[C@H](O)[C@@H](O)[C@@H](O[C@H]6[C@H](O)[C@@H](O)[C@@H](O[C@H]7[C@H](O)[C@@H](O)[C@@H](O[C@H]1[C@H](O)[C@H]2O)O[C@@H]7CO)O[C@@H]6CO)O[C@@H]5CO)O[C@@H]4CO)O[C@@H]3CO` [α-CD, α-cyclodextrin]: the “Ring-opening Half-life” value in data set [2] (1n hcl) is 6.2 h.
In the case of `OC[C@H]1O[C@@H]2O[C@H]3[C@H](O)[C@@H](O)[C@@H](O[C@H]4[C@H](O)[C@@H](O)[C@@H](O[C@H]5[C@H](O)[C@@H](O)[C@@H](O[C@H]6[C@H](O)[C@@H](O)[C@@H](O[C@H]7[C@H](O)[C@@H](O)[C@@H](O[C@H]8[C@H](O)[C@@H](O)[C@@H](O[C@H]1[C@H](O)[C@H]2O)O[C@@H]8CO)O[C@@H]7CO)O[C@@H]6CO)O[C@@H]5CO)O[C@@H]4CO)O[C@@H]3CO` [β-CD, β-cyclodextrin], the “Ring-opening Half-life” value in data set [2] (60° C., 1N HCl) is reported as 5.4 h.
Turning to `OC[C@H]1O[C@@H]2O[C@H]3[C@H](O)[C@@H](O)[C@@H](O[C@H]4[C@H](O)[C@@H](O)[C@@H](O[C@H]5[C@H](O)[C@@H](O)[C@@H](O[C@H]6[C@H](O)[C@@H](O)[C@@H](O[C@H]7[C@H](O)[C@@H](O)[C@@H](O[C@H]8[C@H](O)[C@@H](O)[C@@H](O[C@H]9[C@H](O)[C@@H](O)[C@@H](O[C@H]1[C@H](O)[C@H]2O)O[C@@H]9CO)O[C@@H]8CO)O[C@@H]7CO)O[C@@H]6CO)O[C@@H]5CO)O[C@@H]4CO)O[C@@H]3CO` [γ-CD], the “Ring-opening Half-life” value in data set [2] (60° C., 1N HCl) is 3.0 h.
